According to PMC7766225, “Structure-Based Discovery and Bioactivity Evaluation of Novel Aurora-A Kinase Inhibitors as Anticancer Agents via Docking-Based Comparative Intermolecular Contacts Analysis (dbCICA)” (Molecules, 2020):

Target: T1, Aurora-A kinase (Homo sapiens, UniProt O14965)
T1 construct: purchased Invitrogen (Carlsbad, CA, USA)
T1 sequence (O14965 1-403): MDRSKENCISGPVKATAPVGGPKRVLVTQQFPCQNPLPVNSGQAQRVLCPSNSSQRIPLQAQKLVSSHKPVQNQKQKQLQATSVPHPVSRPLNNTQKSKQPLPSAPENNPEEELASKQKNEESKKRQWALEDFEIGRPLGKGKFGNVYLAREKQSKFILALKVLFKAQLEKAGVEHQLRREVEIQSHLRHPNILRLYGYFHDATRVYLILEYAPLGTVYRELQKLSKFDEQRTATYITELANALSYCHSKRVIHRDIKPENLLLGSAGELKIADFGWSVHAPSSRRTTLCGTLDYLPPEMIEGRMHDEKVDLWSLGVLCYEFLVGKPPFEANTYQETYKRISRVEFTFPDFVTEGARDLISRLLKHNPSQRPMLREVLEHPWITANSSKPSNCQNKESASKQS
Assay: FRET-based Z'-LYTE kinase enzyme inhibition assay
Assay type: biochemical
Settings: 10 µM, duplicates, Z'-LYTE
Protocol: This bioassay was conducted using Z′-LYTE® kinase assay (Invitrogen, Carlsbad, CA, USA) [68, 69]. This biochemical assay depends on fluorescence emission as detection method utilizing a synthetic fluorescence resonance energy transfer (FRET) peptide with two fluorophores: coumarin that work as donor and fluorescein as acceptor [69]. Each hit or compound was dissolved in DMSO to form 10 mM stock solution. Hits were screened at 10 μM concentration. The bioassay was performed in black 384-well plate. For each assay, 100 nL of tested compound stock solution (10 mM) was mixed with 2.4 μL kinase buffer, 5 μL (peptide substrate/Aurora-A Kinase) mixture, and 2.5 μL ATP solution.
The tests were conducted in duplicates.

Structure (SMILES)	% Inhibition at 10 µM
CNC(Cc1ccc(OC)cc1)c1ccc(OC)cc1 (stereo not drawn) [Hit 154]	-2%
NOS(=O)c1ccc(N=CC=Cc2ccccc2)cc1 (stereo not drawn) [Hit 116]	21%
COc1ccc(C(=O)C(O)c2ccc(OC)cc2)cc1 (stereo not drawn) [Hit 149]	-1%
COc1cccc(C(N)CCc2cc(OC)c(OC)c(OC)c2)c1 (stereo not drawn) [Hit 124]	-2%
CCOC(=O)C(=Cc1cc(C)c(OC(C)=O)c(OC)c1)NC(=O)c1ccccc1 [Hit 97]	-4%
COc1ccc(NC(=O)c2ccc(Cl)cc2)cc1 [Hit 138]	-1%
O=[N+]([O-])c1ccc(COc2ccc(Cl)cc2)cc1 [Hit 142]	-3%
O=C(OCC=Cc1ccccc1)c1ccc([N+](=O)[O-])cc1 [Hit 131]	3%
COc1ccc(N=[N+]([O-])c2ccc(OC)cc2)cc1 [Hit 148]	-3%
O=C(NCCc1ccccc1)c1ccc([N+](=O)[O-])cc1 [Hit 87]	-4%
COc1ccc(CC(C)NCC(O)c2ccc(O)c(O)c2)cc1 (stereo not drawn) [Hit 95]	30%
COc1ccc(C(=O)OCc2ccc3c(c2)OCO3)cc1 [Hit 94]	-2%
CN(C)CC(O)c1ccc(C=Cc2ccc(Cl)cc2)cc1 (stereo not drawn) [Hit 143]	-72%
Cc1ccc(S(=O)(=O)Nc2ccc3cc([N+](=O)[O-])ccc3c2[N+](=O)[O-])cc1 [Hit 132]	22%
CCOc1ccc(NC(=O)Nc2ccc(OCC)cc2)cc1 [Hit 125]	-1%
CC(Cc1ccccc1)=NNS(=O)(=O)c1ccc([N+](=O)[O-])cc1 [Hit 83]	7%
Cc1ccc[n+](CC(=O)c2ccc([N+](=O)[O-])cc2)c1 [Hit 106]	6%
COc1cccc(/C=C/C(=O)/C=C/C=C/c2ccccc2)c1 [Hit 96]	0%
COc1ccc(C(Cc2ccc(Cl)cc2)NCCO)cc1 (stereo not drawn) [Hit 92]	3%
CCNC(Cc1ccc(OC)cc1)c1ccc(OC)cc1 (stereo not drawn) [Hit 91]	-2%
CCCCN[C@@H](c1ccc(OC)cc1)[C@H](O)c1ccc(OC)cc1 [Hit 81]	3%
COc1ccc(C=NNS(=O)(=O)c2ccc(NC(C)=O)cc2)cc1 [Hit 89]	2%
O=C(Oc1ccc(Cl)cc1Cl)c1ccc([N+](=O)[O-])cc1 [Hit 137]	-30%
COc1ccc(C=Cc2ccc3ccccc3n2)cc1 [Hit 121]	-2%

Results, then the compound that gave them:

% Inhibition at 10 µM	Structure (SMILES)
-2%	CCC(=Cc1ccc(OC)cc1)C(=O)c1ccc(OC)cc1 [Hit 126]
-5%	COc1ccc(C=Cc2ccc(Cl)cc2)cc1 [Hit 128]
-2%	COc1ccc(C[N+](C)(C)Cc2ccc(OC)cc2)cc1 [Hit 120]
-3%	CC[C@@H](C(=O)c1ccc(OC)cc1)c1ccc(OC)cc1 [Hit 119]
5%	COc1ccc(C(=O)OCc2ccc3c(c2)OCO3)cc1 [Hit 99]
-1%	COc1ccc(CCC(N)c2ccc(OC)cc2)cc1 (stereo not drawn) [Hit 122]
4%	COc1ccc(C(=O)CCCCC(=O)c2ccc(OC)cc2)cc1 [Hit 114]
7%	COc1ccc(/N=N/c2ccc(O)cc2)cc1 [Hit 135]
14%	COc1ccc2c(ccc[n+]2CC(=O)c2ccc(SC)cc2)c1 [Hit 93]
0%	COc1ccc(OC(=O)c2ccc(Cl)cc2)cc1 [Hit 127]
6%	CC(=O)Nc1ccc(S(=O)(=O)NN=Cc2ccc(C)cc2)cc1 [Hit 102]
-5%	COc1ccc(CCc2ccc3cc(OC)ccc3n2)cc1 [Hit 98]
5%	O=[N+]([O-])c1ccc(S(=O)(=O)NN=Cc2ccco2)cc1 [Hit 136]
8%	COc1ccc(N=Nc2ccc(OC)cc2)cc1 [Hit 134]
20%	COc1ccc(-c2oc3ccc(C)cc3c(=O)c2O)cc1 [Hit 80]
